# Results taken from US20250099536A1, “PRISTINAMYCIN IA AND FLOPRISTIN COMBINATIONS IN TREATING OR PREVENTING BACTERIAL INFECTIONS” (AIMMAX THERAPEUTICS, INC., priority 2021, published 2025).
# Like-named read-outs stand apart in the source and are kept apart here. Positions of bridges follow the written chain, without caps; N, C: chain ends. Non-standard residues stand in square brackets, D forms with d. Residues, ends and D or L forms follow the SMILES beside them. *: point of attachment. NMePhe(4-NMe2) = CN[C@@H](Cc1ccc(N(C)C)cc1)C(=O)O; Pip(4-oxo) = O=C1CCN[C@H](C(=O)O)C1; Picolinoyl(3-OH) = O=C(c1ncccc1O)*; Phg = N[C@H](C(=O)O)c1ccccc1; dAbu = CC[C@@H](N)C(=O)O
# Experiments:
# [1] = tested on: Neisseria gonorrhoeae; test: Broth microdilution MIC across streptogramin B:A ratios; assay type: cell-based
# [2] = tested on: Staphylococcus aureus; test: as above; assay type: cell-based
# [3] = tested on: Streptococcus pneumoniae; test: as above; assay type: cell-based
# [4] = tested on: Streptococcus pneumoniae; test: MBC assay; assay type: cell-based; details: S. pneumoniae strains evaluated
# [5] = tested on: Mycoplasma genitalium; test: MIC across streptogramin B:A ratios (CLSI mycoplasma method); assay type: cell-based; details: 10 strains and isolates
# [6] = tested on: S. aureus BAA-1717 strain; test: MIC against the infecting strain of the thigh model; details: Staphylococcus aureus, BAA1717
compound,measurement,setting,value
"CC[C@H]1OC(=O)[C@H](C)[C@@H](O[C@H]2C[C@@](C)(OC)[C@@H](O)[C@H](C)O2)[C@H](C)[C@@H](O[C@@H]2O[C@H](C)C[C@H](N(C)C)[C@H]2O)[C@](C)(O)C[C@@H](C)CN(C)[C@H](C)[C@@H](O)[C@]1(C)O [AZI, Azithromycin, reference compound]",MIC,"[1]; Neisseria gonorrhoeae, ATCC49226, strain ATCC 49226, read-out: MIC",0.5 µg/mL
same,MIC,"[1]; Neisseria gonorrhoeae, strain CDC 0167, read-out: MIC",16 µg/mL
same,MIC,"[1]; Neisseria gonorrhoeae, strain CDC 0175, read-out: MIC",16 µg/mL
same,MIC,"[1]; Neisseria gonorrhoeae, strain CDC 0177, read-out: MIC",4 µg/mL
same,MIC,"[1]; Neisseria gonorrhoeae, strain CDC 0181, read-out: MIC",> 16 µg/mL
same,MIC,"[1]; Neisseria gonorrhoeae, strain CDC 0194, read-out: MIC",0.5 µg/mL
same,MIC,"[1]; Neisseria gonorrhoeae, strain MMX 6921, read-out: MIC",16 µg/mL
same,MIC,"[1]; Neisseria gonorrhoeae, strain WHO F, read-out: MIC",0.12 µg/mL
same,MIC,"[1]; Neisseria gonorrhoeae, strain WHO G, read-out: MIC",0.25 µg/mL
same,MIC,"[1]; Neisseria gonorrhoeae, strain WHO K, read-out: MIC",0.5 µg/mL
same,MIC,"[1]; Neisseria gonorrhoeae, strain WHO L, read-out: MIC",0.5 µg/mL
same,MIC,"[1]; Neisseria gonorrhoeae, strain WHO M, read-out: MIC",0.5 µg/mL
same,MIC,"[1]; Neisseria gonorrhoeae, strain WHO N, read-out: MIC",0.25 µg/mL
same,MIC,"[1]; Neisseria gonorrhoeae, strain WHO O, read-out: MIC",0.5 µg/mL
same,MIC,"[1]; Neisseria gonorrhoeae, strain WHO P, read-out: MIC",8 µg/mL
same,MIC,"[1]; Neisseria gonorrhoeae, strain WHO U, read-out: MIC",8 µg/mL
same,MIC,"[1]; Neisseria gonorrhoeae, strain WHO V, read-out: MIC",> 16 µg/mL
same,MIC,"[1]; Neisseria gonorrhoeae, strain WHO W, read-out: MIC",0.5 µg/mL
same,MIC,"[1]; Neisseria gonorrhoeae, strain WHO X, read-out: MIC",1 µg/mL
same,MIC,"[1]; Neisseria gonorrhoeae, strain WHO Y, read-out: MIC",1 µg/mL
"CC1=C\[C@@H](O)C[C@@H](F)Cc2nc(co2)C(=O)N2CCC[C@@H]2C(=O)O[C@H](C(C)C)[C@H](C)/C=C/C(=O)NC\C=C\1 [CBA1 0:100, flopristin]",MIC,[2]; strain ATCC 29213,1 µg/mL
same,MIC,[2]; strain ATCC BAA 977,1 µg/mL
same,MIC,[2]; strain ATCC BAA-976,0.5 µg/mL
same,MIC,[2]; strain MMX 2336,0.5 µg/mL
same,MIC,[2]; strain MMX 3035,0.5 µg/mL
same,MIC,[2]; strain MMX 3037,0.25 µg/mL
same,MIC,[2]; strain MMX 3095,1 µg/mL
same,MIC,[2]; strain MMX 3098,1 µg/mL
same,MIC,[2]; strain MMX 3885,0.5 µg/mL
same,MIC,[2]; strain MMX 3983,0.5 µg/mL
same,MIC,[2]; strain MMX 4670,0.25 µg/mL
same,MIC,[2]; strain MMX 5787,2 µg/mL
same,MIC,[2]; strain NRS 271,2 µg/mL
same,MIC,[2]; strain NRS 382,1 µg/mL
same,MIC,[2]; strain NRS 384,1 µg/mL
same,MIC,[3]; strain ATCC 49619,2 µg/mL
same,MIC,[3]; strain ATCC 700677,8 µg/mL
same,MIC,[3]; strain MMX 3031,4 µg/mL
same,MIC,[3]; strain MMX 3033,4 µg/mL
same,MIC,[3]; strain MMX 4937,2 µg/mL
same,Strains against which bactericidal (MBC divided by MIC ≤4),[4],5 out of the 5
same,MIC,[1]; strain ATCC 49226,0.12 µg/mL
same,MIC,[1]; strain CDC 0167,0.03 µg/mL
same,MIC,[1]; strain CDC 0175,0.03 µg/mL
same,MIC,[1]; strain CDC 0177,0.06 µg/mL
same,MIC,[1]; strain CDC 0181,0.12 µg/mL
same,MIC,[1]; strain CDC 0194,0.06 µg/mL
same,MIC,[1]; strain MMX 6921,0.12 µg/mL
same,MIC,[1]; strain WHO F,0.015 µg/mL
same,MIC,[1]; strain WHO G,0.12 µg/mL
same,MIC,[1]; strain WHO K,0.25 µg/mL
same,MIC,[1]; strain WHO L,0.12 µg/mL
same,MIC,[1]; strain WHO M,0.12 µg/mL
same,MIC,[1]; strain WHO N,0.12 µg/mL
same,MIC,[1]; strain WHO O,0.12 µg/mL
same,MIC,[1]; strain WHO P,0.5 µg/mL
same,MIC,[1]; strain WHO U,0.12 µg/mL
same,MIC,[1]; strain WHO V,0.25 µg/mL
same,MIC,[1]; strain WHO W,0.12 µg/mL
same,MIC,[1]; strain WHO X,0.12 µg/mL
same,MIC,[1]; strain WHO Y,0.12 µg/mL
same,MIC range,[5],0.015 to 0.5 µg/mL
CC(=O)NC[C@H]1CN(c2ccc(N3CCOCC3)c(F)c2)C(=O)O1 [linezolid],MIC,[6],2 µg/mL
CN[C@H](CC(C)C)C(=O)N[C@H]1C(=O)N[C@@H](CC(N)=O)C(=O)N[C@H]2C(=O)N[C@H]3C(=O)N[C@H](C(=O)N[C@H](C(=O)O)c4cc(O)cc(O)c4-c4cc3ccc4O)[C@H](O)c3ccc(c(Cl)c3)Oc3cc2cc(c3O[C@@H]2O[C@H](CO)[C@@H](O)[C@H](O)[C@H]2O[C@H]2C[C@](C)(N)[C@H](O)[C@H](C)O2)Oc2ccc(cc2Cl)[C@H]1O [vancomycin],MIC,[6],1 µg/mL
"CC[C@H]1NC(=O)[C@@H](NC(=O)c2ncccc2O)[C@@H](C)OC(=O)[C@H](c2ccccc2)NC(=O)[C@@H]2CC(=O)CCN2C(=O)[C@H](Cc2ccc(N(C)C)cc2)N(C)C(=O)[C@@H]2CCCN2C1=O [CBA1 100:0, pristinamycin IA] ({Picolinoyl(3-OH)}-T[dAbu]P[NMePhe(4-NMe2)][Pip(4-oxo)][Phg]; ester 1-C)",MIC,[2]; strain ATCC 29213,8 µg/mL
same,MIC,[2]; strain ATCC BAA 977,16 µg/mL
same,MIC,[2]; strain ATCC BAA-976,8 µg/mL
same,MIC,[2]; strain MMX 2336,8 µg/mL
same,MIC,[2]; strain MMX 3035,>64 µg/mL
same,MIC,[2]; strain MMX 3037,>64 µg/mL
same,MIC,[2]; strain MMX 3095,8 µg/mL
same,MIC,[2]; strain MMX 3098,8 µg/mL
same,MIC,[2]; strain MMX 3885,8 µg/mL
same,MIC,[2]; strain MMX 3983,>64 µg/mL
same,MIC,[2]; strain MMX 4670,>64 µg/mL
same,MIC,[2]; strain MMX 5787,>64 µg/mL
same,MIC,[2]; strain NRS 271,8 µg/mL
same,MIC,[2]; strain NRS 382,>64 µg/mL
same,MIC,[2]; strain NRS 384,8 µg/mL
same,MIC,[3]; strain ATCC 49619,1 µg/mL
same,MIC,[3]; strain ATCC 700677,32 µg/mL
same,MIC,[3]; strain MMX 3031,0.5 µg/mL
same,MIC,[3]; strain MMX 3033,2 µg/mL
same,MIC,[3]; strain MMX 4937,1 µg/mL
same,Strains against which bactericidal (MBC divided by MIC ≤4),[4],2 out of the 4
same,MIC,[1]; strain ATCC 49226,>64 µg/mL
same,MIC,[1]; strain CDC 0167,>64 µg/mL
same,MIC,[1]; strain CDC 0175,>64 µg/mL
same,MIC,[1]; strain CDC 0177,>64 µg/mL
same,MIC,[1]; strain CDC 0181,>64 µg/mL
same,MIC,[1]; strain CDC 0194,32 µg/mL
same,MIC,[1]; strain MMX 6921,>64 µg/mL
same,MIC,[1]; strain WHO F,32 µg/mL
same,MIC,[1]; strain WHO G,>64 µg/mL
same,MIC,[1]; strain WHO K,>64 µg/mL
same,MIC,[1]; strain WHO L,64 µg/mL
same,MIC,[1]; strain WHO M,64 µg/mL
same,MIC,[1]; strain WHO N,>64 µg/mL
same,MIC,[1]; strain WHO O,64 µg/mL
same,MIC,[1]; strain WHO P,>64 µg/mL
same,MIC,[1]; strain WHO U,>64 µg/mL
same,MIC,[1]; strain WHO V,>64 µg/mL
same,MIC,[1]; strain WHO W,64 µg/mL
same,MIC,[1]; strain WHO X,>64 µg/mL
same,MIC,[1]; strain WHO Y,32 µg/mL
same,MIC range,[5],2 to 16 µg/mL
